Tested on: prolactin
Experiment: Serum prolactin levels in rats, reserpinized and non-reserpinized
Format: in vivo, rats of the Sprague-Dawley strain
Conditions: for Prolactin Levels Non-Reserpinized 1 / Prolactin Levels Non-Reserpinized 2: rats not pretreated with reserpine, compound 1 mg./kg.; for Prolactin Levels Non-Reserpinized 1: run 1; for Prolactin Levels Non-Reserpinized 2: run 2; for Prolactin Levels Reserpinize: reserpine 2.0 mg. i.p. 18 hours before, compound 1 mg./kg. intraperitoneally, serum one hour after treatment
Procedure: Adult male rats of the Sprague-Dawley strain weighing about 200 g. were housed in an air-conditioned room with controlled lighting (lights on 6 a.m. - 8 p.m.) and fed lab chow and water ad libitum. Each rat received an intraperitoneal.injection of 2.0 mg. of reserpine in aqueous suspension 18 hours before administration of the compound of formula I. The purpose of the reserpine was to keep prolactin levels uniformly elevated. The compounds under test were dissolved in water and were injected intraperitoneally at a 1 mg./kg. dose level. Each compound was administered to a group of 10 rats, and a control group of 10 intact males received an equivalent amount of solvent. One hour after treatment all rats were killed by decapitation, and 150 ul. aliquots of serum were assayed for prolactin.
In addition, prolactin levels were determined in two runs in which the rats were not pretreated with reserpin. The dose level of the drug was maintained at 1 mg./kg.

SMILES: CCCN1CCc2cc(O)c(O)c3c2C1Cc1c[nH]nc1-3 (racemic) [1,2-Dihydroxy-6-n-propyl-4,5,,6,6a,7,9-hexahydroindazolo[7,6,5-ij]isoquinoline]
- Prolactin Levels Non-Reserpinized 1: 40.0±9.5 (P<.05)
- Prolactin Levels Non-Reserpinized 2: 23.8±2.8
- Prolactin Levels Reserpinize: 49.9±6.0 (P<.01)

SMILES: C=CCN1CCc2cc(OC)c(OC)c3c2C1Cc1c[nH]nc1-3 (racemic) [l,2-Dimethoxy-6-allyl-4,5,6,6a,7,9-hexahydroindazolo[7,6,5-ij]isoquinoline]
- Prolactin Levels Non-Reserpinized 1: 7.3±1.6
- Prolactin Levels Reserpinize: 26.7±2.7

SMILES: CN1CCc2cc(O)c(O)c3c2C1Cc1c[nH]nc1-3 (stereo not shown) [1,2-Dihydroxy-6-methyl-4,5,6,6a,7,9-hexahydroindazolo[7,6,5-ij]isoquinoline]
- Prolactin Levels Non-Reserpinized 1: 45.2±5.4 (P<.001)
- Prolactin Levels Non-Reserpinized 2: 21.6±3.9
- Prolactin Levels Reserpinize: 36.4±4.9

SMILES: CCN1CCc2cc(OC)c(OC)c3c2C1Cc1c[nH]nc1-3 (stereo not shown) [1,2-Dimethoxy-6-ethyl-4,5,6,6a,7,9-hexahydroindazolo[7,6,5-ij]isoquinoline]
- Prolactin Levels Non-Reserpinized 1: 4.6±0.6
- Prolactin Levels Reserpinize: 30.5±4.9

SMILES: COc1cc2c3c(c1OC)-c1n[nH]cc1CC3N(C)CC2 (stereo not shown) [1,2-Dimethoxy-6-methyl-4,5,6,6a,7,9-hexahydroindazolo[7,6,5-ij]isoquinoline]
- Prolactin Levels Non-Reserpinized 1: 36.6±6.6 (P<.02)
- Prolactin Levels Non-Reserpinized 2: 9.0±3.2
- Prolactin Levels Reserpinize: 41.6±7.7

SMILES: CN1CCc2cccc3c2C1Cc1c[nH]nc1-3 (stereo not shown) [6-Methyl-4,5,6,6a,7,9-hexahydroindazolo-[7,6,5-ij]isoquinoline]
- Prolactin Levels Non-Reserpinized 1: 19.7±3.1
- Prolactin Levels Non-Reserpinized 2: 11.8±2.7
- Prolactin Levels Reserpinize: 39.3±7.3

SMILES: CCCN1CCc2cccc3c2C1Cc1c[nH]nc1-3 (stereo not shown) [6-n-Propyl-4,5,6,6a,7,9-hexahydroindazolo[7,6,5-ij]isoquinoline]
- Prolactin Levels Non-Reserpinized 1: 9.5±1.7
- Prolactin Levels Non-Reserpinized 2: 7.8±2.6
- Prolactin Levels Reserpinize: 22.6±3.8

Reference: EP0061341A2, “6-Substituted hexahydroindazolo isoquinolines” (priority 1981, dated 1982)
